Experiments:
[1] = in humans; cited from earlier work
[2] = test system: rats under propofol and sevoflurane anesthesia; settings: Kenny et al., PLoS ONE 2015; cited from earlier work
rats sedated with DEX [3] = assay: LFP spectrogram and electromyogram analysis in rats sedated with DEX; format: in vivo; settings: infusion after DEX infusion; FIG. 3 bottom panel
Text: Spectrograms were constructed from continuous LFP recordings from the prefrontal cortex of rats. In these figures, spectral power (dB) at a given frequency (Hz) is represented by color and plotted over time.

[4] = test system: rats anesthetized with ketamine; assay: Recovery of consciousness after ketamine anesthesia in rats; format: in vivo; settings: 8 rats, crossover; ketamine 50 mg/kg IV over 10 min; 5 min later dextroamphetamine 3 mg/kg IV over 2 min; saline mean 6.3 minutes; p<0.05
Experimental: A randomized, blinded, crossover design was used with 8 rats. After intravenous administration of ketamine (50 mg/kg IV) over 10 minutes, all rats became unconscious. […] The difference was statistically significant (p<0.05).

rat sedated with DEX = assay: Quadrant crossings in the cage after dexmedetomidine sedation (single rat); format: in vivo
Experimental: The data provided is from a single rat that underwent 3 experiments, with 3-4 days of rest between each session. FIG. 5 is a schematic of the experimental Design.
The rat received an intravenous infusion of dexmedetomidine (DEX, 50 mcg/kg) over 10 minutes, followed by a 5-minute rest period to switch medications. […] Note that 7.4 mg/kg of LDX is enzymatically cleaved to slowly release a total of 2.2 mg/kg of d-AMPH.
The cage was divided into 4 quadrants, and the number of times the rat crossed from one quadrant to another was recorded. Each data point represents the number of quadrant crossings in the cage during the preceding 15 minutes. […] By adjusting the relative doses of d-AMPH and LDX, a combination of these two drugs provided continuous, long-lasting reversal of DEX sedation, without the adverse side effects of administering a larger dose of d-AMPH, e.g., hyperactivity and large increases in heart rate and blood pressure.

rats sedated with DEX [5] = assay: Recovery of consciousness (righting reflex) in rats sedated with DEX; format: in vivo; settings: 8 rats, crossover; DEX 50 micrograms/kg IV over 10 min; 5 min later dextroamphetamine 3 mg/kg IV over 2 min; saline mean 92 minutes; p<0.01
Text: A randomized, blinded, crossover design was used with 8 rats. […] This difference was statistically significant (p<0.01).

Compound	half-life [1]	reversal of general anesthesia [2]	low-frequency LFP power, consciousness and EMG activity (rats sedated with DEX [3])	mean time to recovery of consciousness after ketamine [4] [min]	reversal of DEX sedation (movement, quadrant crossings) (rat sedated with DEX; DEX 50 mcg/kg IV over 10 min, d-AMPH 0.8 mg/kg alone, 2-minute IV infusion, FIG. 6)	time after which re-sedation occurred (rat sedated with DEX; DEX 50 mcg/kg IV, d-AMPH 0.8 mg/kg IV alone) [min]	mean time to regain consciousness (rats sedated with DEX [5]) [min]
Cc1cccc([C@H](C)c2cnc[nH]2)c1C [DEX, Dexmedetomidine]	approximately 2 hours	–	–	–	–	–	–
C[C@H](N)Cc1ccccc1 [dextroamphetamine]	–	reverse propofol and sevoflurane anesthesia	rapidly decreased low-frequency LFP power, which coincided with return of consciousness (ROC) and increased EMG activity	11.6	initially woke up and moved around	30	1.7
